Laboratory results as given in article PMC10049026, “In Silico Binding of 2-Aminocyclobutanones to SARS-CoV-2 Nsp13 Helicase and Demonstration of Antiviral Activity” (International Journal of Molecular Sciences, 2023).
Like-named read-outs stand apart in the source and are kept apart here.

What was measured:
[1] = system: Omicron Variant hCoV-19/USA/MD-HP20874/2021 (Lineage B.1.1.529); assay: microbe, parasite or virus in culture; assay type: cell-based, SARS-CoV-2; settings: Severe acute respiratory syndrome coronavirus 2
[2] = system: Delta Variant hCoV-19/USA/MD-HP05285/2021 (Lineage B.1.617.2); assay: microbe, parasite or virus in culture; assay type: cell-based, SARS-CoV-2; settings: for IC50: Severe acute respiratory syndrome coronavirus 2

## Cc1ccc(S(=O)(=O)N[C@@H](Cc2c[nH]c3ccccc23)C(=O)NC2CCC2=O)cc1 (stereo partly drawn) [Compound 4, (2S)-3-(1H-Indol-3-yl)-2-((4-methylphenyl)sulfonamido)-N-(2-oxocyclobutyl)propanamide]
[1]; read-out: IC50, Omicron VOC (Figure 5)
  IC50: 2590 ± 1280 nM
[1]; read-out: IC50 Values For inhibition of SARS-CoV-2 Mediated Cell Death, Omicron
  IC50: 1580 nM
[2]
  difference in IC50, variants vs wild-type: 10 to 20 fold
[2]; read-out: IC50, Delta VOC (Figure 5)
  IC50: 943 ± 526 nM
[2]; read-out: IC50 Values For inhibition of SARS-CoV-2 Mediated Cell Death, Delta
  IC50: 220 nM
